“And” between values parts separate entries of the source, which are not always exact repeats. Equal values may be shown once.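 96-well plates; 48 h exposure; 5 concentrations. Endpoints by linear interpolation between flanking doses. Not reached: highest tested concentration assigned. GI50 marks 50% less growth. Definition used: TGI = concentration required for complete inhibition of growth.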
Columns and labels:
Experiment in all cases: growth of human tumour cells (NCI), 48 h
UO-31 renal = tested on: UO-31 renal
OVCAR-5 ovarian = tested on: OVCAR-5 ovarian
SF-268 CNS = tested on: SF-268 CNS
SW-620 colon = tested on: SW-620 colon
786-0 renal = tested on: 786-0 renal
SN12C renal = tested on: SN12C renal
HOP-62 NSCLC = tested on: HOP-62 NSCLC
HOP-92 NSCLC = tested on: HOP-92 NSCLC
UACC-62 melanoma = tested on: UACC-62 melanoma
MALME-3M melanoma = tested on: MALME-3M melanoma

## CC1(C)C(=O)C(C)(C)C1=NN
UO-31 renal
  TGI: > 100 µM
OVCAR-5 ovarian
  TGI: > 100 µM
SF-268 CNS
  TGI: > 100 µM
SW-620 colon
  TGI: > 100 µM
786-0 renal
  TGI: > 100 µM
SN12C renal
  TGI: > 100 µM
HOP-62 NSCLC
  TGI: > 100 µM
HOP-92 NSCLC
  TGI: > 100 µM
UACC-62 melanoma
  TGI: > 100 µM
MALME-3M melanoma
  TGI: > 100 µM

## C/C(=N\O)c1cccc(Nc2cc(-n3ccnn3)c3ccccc3n2)c1
UO-31 renal
  GI50: 16.2 µM
  TGI: 37.5 µM
OVCAR-5 ovarian
  GI50: 24.4 µM
  TGI: > 100 µM
SF-268 CNS
  GI50: > 100 µM
  TGI: > 100 µM
SW-620 colon
  GI50: 21.1 µM
  TGI: 50.6 µM
786-0 renal
  GI50: 18.3 µM
  TGI: 51.5 µM
SN12C renal
  GI50: 15.4 µM
  TGI: 34 µM
HOP-62 NSCLC
  GI50: 15.2 µM
  TGI: 30.7 µM
HOP-92 NSCLC
  GI50: 13.9 µM
  TGI: 38.2 µM
UACC-62 melanoma
  GI50: 12.8 µM
  TGI: 25.4 µM

## CCOC(=O)C1=C(c2ccccc2)N(C)c2ccccc2S1
UO-31 renal
  TGI: 81 µM
OVCAR-5 ovarian
  TGI: > 100 µM
SF-268 CNS
  TGI: 97.3 µM
SW-620 colon
  TGI: > 100 µM
786-0 renal
  TGI: > 100 µM
SN12C renal
  TGI: 58.2 µM
HOP-62 NSCLC
  TGI: > 100 µM
HOP-92 NSCLC
  TGI: > 100 µM
UACC-62 melanoma
  TGI: 53.2 µM
MALME-3M melanoma
  TGI: > 100 µM

## COc1ccc(N2Cc3cnc(Nc4ccccc4)nc3N([C@@H]3CC[C@@H](O)C3)C2=O)cc1
UO-31 renal
  GI50: 0.869 µM
  TGI: > 16.5 µM
OVCAR-5 ovarian
  GI50: 5.54 µM
  TGI: > 25 µM
SF-268 CNS
  GI50: 5.05 µM
  TGI: > 25 µM
SW-620 colon
  GI50: 3.81 µM
  TGI: > 18.2 µM
786-0 renal
  GI50: 3.08 µM
  TGI: > 25 µM
SN12C renal
  GI50: 1.31 µM
  TGI: > 25 µM
HOP-62 NSCLC
  GI50: 8.87 µM
  TGI: > 25 µM
HOP-92 NSCLC
  GI50: 1.16 µM
  TGI: 10.7 µM
UACC-62 melanoma
  GI50: 2.74 µM
  TGI: > 25 µM
MALME-3M melanoma
  GI50: 6.89 µM
  TGI: > 25 µM

## CCCC(=O)Nc1cc(C(=O)N2C[C@@H]3C[C@]34C2=CC(=O)c2[nH]cc(C)c24)n(COC)c1
UO-31 renal
  GI50: 26.7 µM
  TGI: 17.3 µM and 94.4 µM
OVCAR-5 ovarian
  GI50: 3.86 µM
  TGI: 50 µM and 10.6 µM
SF-268 CNS
  GI50: 3.46 µM
  TGI: 10.6 µM and 33.3 µM
SW-620 colon
  GI50: 2.7 µM
  TGI: 50 µM and 19.9 µM
786-0 renal
  GI50: 1.81 µM
  TGI: 15.2 µM and 3.72 µM
SN12C renal
  GI50: 4.45 µM
  TGI: 31.7 µM and 16.1 µM
HOP-62 NSCLC
  GI50: 2.5 µM
  TGI: 50 µM and 8.13 µM
HOP-92 NSCLC
  GI50: 3.22 µM
  TGI: 11.2 µM and 7.85 µM
UACC-62 melanoma
  GI50: 2.84 µM
  TGI: 13.5 µM and 8.75 µM
MALME-3M melanoma
  TGI: 10.9 µM

## O=C(c1ccc(Cl)cc1)c1ccc(OCCCCCCCCCCOc2ccc(C(=O)c3ccc(Cl)cc3)cc2)cc1
UO-31 renal
  TGI: > 100 µM
OVCAR-5 ovarian
  TGI: > 100 µM
SF-268 CNS
  TGI: > 100 µM
SW-620 colon
  TGI: > 100 µM
786-0 renal
  TGI: > 100 µM
SN12C renal
  TGI: > 100 µM
HOP-62 NSCLC
  TGI: > 100 µM
HOP-92 NSCLC
  TGI: > 100 µM
UACC-62 melanoma
  TGI: > 100 µM
MALME-3M melanoma
  TGI: > 100 µM

## CSC(CC(=O)O)C(=O)O (centres undefined)
UO-31 renal
  TGI: > 100 µM
OVCAR-5 ovarian
  TGI: > 100 µM
SF-268 CNS
  TGI: > 100 µM
SW-620 colon
  TGI: > 100 µM
786-0 renal
  TGI: > 100 µM
SN12C renal
  TGI: > 100 µM
HOP-62 NSCLC
  TGI: > 100 µM
HOP-92 NSCLC
  TGI: > 100 µM
UACC-62 melanoma
  TGI: > 100 µM
MALME-3M melanoma
  TGI: > 100 µM

## O=C(Nc1ccc(Cl)cc1Cl)C(=O)C(C(=O)c1ccc2ccccc2c1)C1OC(=O)c2ccccc21 (centres undefined)
UO-31 renal
  TGI: 27 µM
OVCAR-5 ovarian
  TGI: 19.6 µM
SW-620 colon
  TGI: 24.9 µM
786-0 renal
  TGI: 19.5 µM
SN12C renal
  TGI: 30.7 µM
HOP-62 NSCLC
  TGI: 27.8 µM
HOP-92 NSCLC
  TGI: 8.92 µM
UACC-62 melanoma
  TGI: 46.7 µM

## O=C(Nc1cccs1)c1c(O)[nH]c(=S)[nH]c1=O
UO-31 renal
  TGI: > 100 µM
OVCAR-5 ovarian
  TGI: > 100 µM
SF-268 CNS
  TGI: > 100 µM
SW-620 colon
  TGI: > 100 µM
786-0 renal
  TGI: > 100 µM
SN12C renal
  TGI: > 100 µM
HOP-62 NSCLC
  TGI: > 100 µM
HOP-92 NSCLC
  TGI: > 100 µM
UACC-62 melanoma
  TGI: > 100 µM

## COc1ccc2c(c1)C(=O)c1c-2n(CCCN=[N+]=[N-])c(=O)c2cc(N(C)C)ccc12
UO-31 renal
  GI50: > 100 µM
  TGI: > 100 µM
OVCAR-5 ovarian
  GI50: > 100 µM
  TGI: > 100 µM
SF-268 CNS
  GI50: 22.3 µM
  TGI: > 100 µM
SW-620 colon
  GI50: > 100 µM
  TGI: > 100 µM
786-0 renal
  GI50: 29.5 µM
  TGI: > 100 µM
SN12C renal
  GI50: > 100 µM
  TGI: > 100 µM
HOP-62 NSCLC
  GI50: 10.3 µM
  TGI: > 100 µM
HOP-92 NSCLC
  GI50: 2.87 µM
  TGI: 24.6 µM
UACC-62 melanoma
  GI50: > 100 µM
  TGI: > 100 µM
MALME-3M melanoma
  GI50: > 100 µM
  TGI: > 100 µM

## CCc1cccc(C(C)C)c1NC(=O)C(=O)CC(=O)c1c(C)n([O-])c2ccccc2[n+]1=O
UO-31 renal
  TGI: > 100 µM
OVCAR-5 ovarian
  TGI: > 100 µM
SF-268 CNS
  TGI: > 100 µM
SW-620 colon
  TGI: > 100 µM
786-0 renal
  TGI: > 100 µM
SN12C renal
  TGI: > 100 µM
HOP-62 NSCLC
  TGI: > 100 µM
HOP-92 NSCLC
  TGI: > 100 µM
UACC-62 melanoma
  TGI: > 100 µM
MALME-3M melanoma
  TGI: > 100 µM

## CCO/C=C/C(C)C1(C(=O)OCC)CCCCC1=O (centres undefined)
UO-31 renal
  TGI: > 100 µM
OVCAR-5 ovarian
  TGI: > 100 µM
SF-268 CNS
  TGI: > 100 µM
786-0 renal
  TGI: > 100 µM
SN12C renal
  TGI: > 100 µM
HOP-62 NSCLC
  TGI: > 100 µM
HOP-92 NSCLC
  TGI: > 100 µM
UACC-62 melanoma
  TGI: > 100 µM
MALME-3M melanoma
  TGI: > 100 µM

## FC(F)(F)c1cc(-c2nnc3n2N=C(N2CCCC2)CS3)cc(C(F)(F)F)c1
UO-31 renal
  GI50: > 50 µM
  TGI: > 50 µM
OVCAR-5 ovarian
  GI50: > 50 µM
  TGI: > 50 µM
SF-268 CNS
  GI50: > 50 µM
  TGI: > 50 µM
SW-620 colon
  GI50: > 50 µM
  TGI: > 50 µM
786-0 renal
  GI50: 20.3 µM
  TGI: > 50 µM
SN12C renal
  GI50: > 50 µM
  TGI: > 50 µM
HOP-62 NSCLC
  GI50: 16.7 µM
  TGI: > 50 µM
HOP-92 NSCLC
  GI50: 25.9 µM
  TGI: > 50 µM
UACC-62 melanoma
  GI50: > 50 µM
  TGI: > 50 µM
MALME-3M melanoma
  GI50: > 50 µM
  TGI: > 50 µM

## COc1ccc(-c2cc(=O)c3c(C)cc(C)nc3[nH]2)cc1
UO-31 renal
  TGI: > 100 µM
OVCAR-5 ovarian
  TGI: > 100 µM
SF-268 CNS
  TGI: > 100 µM
SW-620 colon
  TGI: > 100 µM
786-0 renal
  GI50: 58.8 µM
  TGI: > 100 µM
SN12C renal
  TGI: > 100 µM
HOP-62 NSCLC
  TGI: > 100 µM
HOP-92 NSCLC
  TGI: > 100 µM
UACC-62 melanoma
  TGI: 46.6 µM
MALME-3M melanoma
  TGI: 88 µM

## O=C(O)[C@@H]1[C@H](C(=O)O)[C@H](C(=O)O)C[C@@H]1C(=O)O
UO-31 renal
  TGI: > 100 µM
OVCAR-5 ovarian
  TGI: > 100 µM
SF-268 CNS
  TGI: > 100 µM
SW-620 colon
  TGI: > 100 µM
786-0 renal
  TGI: > 100 µM
SN12C renal
  TGI: > 100 µM
HOP-62 NSCLC
  TGI: > 100 µM
HOP-92 NSCLC
  TGI: > 100 µM
UACC-62 melanoma
  TGI: > 100 µM
MALME-3M melanoma
  TGI: > 100 µM

## COc1cc2c(c(OC)c1OC)-c1ccc(N)c(=O)cc1[C@@H](NC(C)=O)CC2
UO-31 renal
  GI50: 0.705 µM
  TGI: > 100 µM
OVCAR-5 ovarian
  GI50: 0.202 µM
  TGI: > 100 µM
SF-268 CNS
  GI50: 0.0339 µM
  TGI: > 100 µM
SW-620 colon
  GI50: < 0.01 µM
  TGI: > 100 µM
786-0 renal
  GI50: 0.108 µM
  TGI: > 100 µM
SN12C renal
  GI50: 0.0546 µM
  TGI: > 100 µM
HOP-62 NSCLC
  GI50: 0.0426 µM
  TGI: > 100 µM
HOP-92 NSCLC
  GI50: 0.0409 µM
  TGI: > 100 µM
UACC-62 melanoma
  GI50: 0.0379 µM
  TGI: > 100 µM
MALME-3M melanoma
  GI50: 48.8 µM
  TGI: > 100 µM

Reference: PubChem BioAssay (NCI)
